Assay results reported in patent US20170129864A1, “NEW SIGMA-RECEPTORS LIGANDS WITH ANTI-APOPTOTIC AND/OR PRO-APOPTOTIC PROPERTIES, OVER CELLULAR BIOCHEMICAL MECHANISMS WITH NEUROPROTECTIVE, ANTI-CANCER, ANTI-METASTATIC AND ANTI-(CHRONIC) INFLAMMATORY ACTION” (Anavex Life Sciences Corp., priority 2007, published 2017).
Values belong to the compound of their own block, whether it stands above or below them.

Key:
σ-1 receptors = σ-1 receptors (Homo sapiens, UniProt Q99720); assay: agonistic or antagonistic action on σ-1 receptors
Chain of σ-1 receptors (Q99720 whole entry): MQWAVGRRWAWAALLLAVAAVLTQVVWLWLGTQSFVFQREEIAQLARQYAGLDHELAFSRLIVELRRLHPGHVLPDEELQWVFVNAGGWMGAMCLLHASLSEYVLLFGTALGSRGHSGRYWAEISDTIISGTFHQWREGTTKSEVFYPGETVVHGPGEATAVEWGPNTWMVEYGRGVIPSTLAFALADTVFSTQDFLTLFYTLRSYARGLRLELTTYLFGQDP

[1] = test system: Aβ25-35 induced neutotoxicity and oxidative stress; assay: Aβ25-35 induced neurotoxicity and oxidative stress; format: in vivo; conditions: 0.03-1 mg/kg, i.p
σ-2 receptors [2] = target: T1, σ-2 receptors (Homo sapiens, UniProt Q5BJF2); assay: affinity for σ-2 receptors; format: binding
T1 sequence (Q5BJF2 whole entry): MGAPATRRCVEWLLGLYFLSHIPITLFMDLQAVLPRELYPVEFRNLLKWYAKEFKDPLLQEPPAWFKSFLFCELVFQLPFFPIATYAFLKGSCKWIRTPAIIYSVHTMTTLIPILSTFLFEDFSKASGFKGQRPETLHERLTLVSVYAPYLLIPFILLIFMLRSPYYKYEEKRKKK

[3] = test system: anoxia that is caused by pentylenetetrazole (PTZ); assay: protection against pentylenetetrazole (PTZ) induced anoxia and tonic crises; format: in vivo, mice
cancer cells = assay: cytotoxic action on cancer cells via apoptosis; format: cell-based; conditions: depending on the cell line used
mice = assay: forced swimming test; format: in vivo; set-up: dose or concentration left out as unconfirmed; conditions: forced swimming test in mice
σ-2 receptors [4] = target: T1, σ-2 receptors; assay: agonistic action for σ-2
[5] = test system: scopolamine and dizocilpine (MK-801) induced amnesia or amyloid peptide β25-35 (Aβ25-35); assay: anti-amnesic action against scopolamine, dizocilpine (MK-801) or Aβ25-35 induced amnesia; format: in vivo; conditions: per os (po), in mice

Compound: CN(C)CC1COC(c2ccccc2)(C23CC4CC(CC(C4)C2)C3)C1 (stereo not drawn) [AdPhAE, 5-(TRICYCLO[3.3.1.13,7]DEC-1-YL)-TETRAHYDRO-N,N-DIMETHYL-5-PHENYL-3-FURANEMETHANAMINE-]
action on σ-1 receptors (σ-1 receptors): weak agonists

Compound: CNCC1CCOC1(c1ccccc1)c1ccccc1 (stereo not drawn) [AE37 Met, tetrahydro-N-methyl-2,2-diphenyl-3-furanomethanamine]
protection against anoxia caused by pentylenetetrazole (PTZ) ([3]; in mice): exceptional protection
activity relative to AE37 for the properties mentioned ([3]; mainly neuroprotective action): slightly more active than AE37

Compound: CN(C)CC1COC2(C1)C1CC3CC(C1)CC2C3 (stereo not drawn) [AdAE, (DIHYDRO-4-(DIMETHYLAMINOMETHYL)SPIRO{FURANE-2(3H), 2′TRICYCLO[3.3.1.13,7]DECANE}]
action on σ-1 receptors (σ-1 receptors): weak agonists

The next lines start with results.

affinity for σ-2 receptors (σ-2 receptors [2]): no affinity
Compound: CN(C)CC1CCOC1(c1ccccc1)c1ccccc1 (stereo not drawn) [AE37, tetrahydro-N,N-dimethyl-2,2-diphenyl-3-furanomethanamine]
activity against Aβ25-35 induced neurotoxicity and oxidative stress [1]: very performant

concentration at which agonistic action for σ-2 is shown (σ-2 receptors [4]): over 10 μM
Ki (σ-2 receptors [2]): > 10 µM
affinity for σ-2 receptors, times lower than for σ-1 (σ-2 receptors [2]; σ-2 versus σ-1): more than 100 times
Compound: CN(C)CC1COC(c2ccccc2)(c2ccccc2)C1 (stereo not drawn) [AE14, Tetrahydro-N,N,-dimethyl-5,5-diphenyl-3-furanomethanamine]
concentration at which cytotoxic action on cancer cells is shown (cancer cells): over 200 μM
anti-immobility action (mice): very strong anti-immobility action
anti-amnesic action, active doses from [5]: ≥ 0.03 mg/kg
